Source: patent publication US6737383B1, “Herbicidal oxadiazolidines” (priority 1999, dated 2004)

Legend:
green foxtail = assay: Test E green foxtail; format: in vivo, Setaria viridis; details: Preemergence
tall mallow = assay: Test D tall mallow; format: in vivo, Malva sylvestris; details: Preemergence, 0 to 100 scale; for Tall Mallow plant response rating: 0 no injury, 100 complete control
Outline: (§1)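 Seeds were sown in greenhouse pots, one species per pot or compartment. Compounds were in a non-phytotoxic solvent mixture with surfactant; preemergence applications went on the sandy loam surface within one day of planting. Injury was rated visually after 14 to 21 days, 0 (none) to 100 (complete control).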

bermuda-grass = assay: Test D bermudagrass; format: in vivo, Cynodon dactylon; details: Preemergence, 0 to 100 scale
Outline: as §1

winter wheat [1] = assay: Test E winter wheat; format: in vivo, Triticum aestivum; details: Preemergence
common pursiane = assay: Test D common purslane; format: in vivo, Portulaca oleracea
Outline: as §1

soybean = assay: Test B pre/postemergence soybean; format: in vivo, Glycine max
Outline: (§2)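 Herbicidal effect was estimated by eye on a ten-point control scale after plants spent twelve to sixteen days in a greenhouse following soil or foliar treatment. Foliar sprays targeted plants at one to four leaves; all doses were formulated in a non-phytotoxic solvent with surfactant.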

Italian ryegrass = assay: Test E Italian ryegrass; format: in vivo, Lolium multiflorum; details: Preemergence
guineagrass = assay: Test D guineagrass; format: in vivo, Panicum maximum; details: Preemergence, 0 to 100 scale
Outline: as §1

duck salad = assay: Test B flood test duck salad; format: in vivo, Heteranthera limosa
Outline: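 Flood test on plants grown to the 2-leaf stage; treated plants kept in greenhouse twelve to sixteen days, then visually rated against controls on a 0 (no effect) to 10 (complete control) scale.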

cocklebur = assay: Test B pre/postemergence cocklebur; format: in vivo, Xanthium strumarium
Outline: as §2

pitted morningglory = assay: Test D pitted morningglory; format: in vivo, Ipomoea lacunosa; details: Preemergence, 0 to 100 scale
Outline: as §1

velvetleaf = assay: Test B pre/postemergence velvetleaf; format: in vivo, Abutilon theophrasti; details: for Plant response rating, Velvetleaf: Rate 250 g/ha
Outline: as §2

winter wheat [2] = assay: Test E winter wheat; format: in vivo, Triticum aestivum; details: Postemergence
Outline: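 Compounds formulated in non-phytotoxic solvent mixture with surfactant; for postemergence, sprayed on plants at 1- to 4-leaf stage grown in 60:40 sandy loam/greenhouse potting mix. Kept in greenhouse ~21 to 28 days, then visually rated against untreated controls.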

wild oat = assay: Test E wild oat; format: in vivo, Avena fatua; details: Preemergence
blackgrass = assay: Test E blackgrass; format: in vivo, Alopecurus myosuroides; details: Preemergence
winter barley = assay: Test E winter barley; format: in vivo, Hordeum vulgare; details: Preemergence
[3] = Rate 62 g/ha, 0 to 100 scale, 0 no effect, 100 complete control
[4] = Rate 125 g/ha, 0 to 100 scale (0 no effect, 100 complete control)
[5] = Rate 64 g/ha, 0 no injury, 100 complete control
[6] = Rate 125 g/ha, 0 no injury, 100 complete control
[7] = Postemergence, Rate 125 g/ha, scale of 0 to 10 where 0 is no effect and 10 is complete control
[8] = Preemergence, Rate 62 g/ha, scale 0 to 10 (0 no effect, 10 complete control)
[9] = Preemergence, Rate 125 g/ha, scale 0 to 10 (0 no effect, 10 complete control)
[10] = Preemergence, Rate 250 g/ha, scale of 0 to 10 where 0 is no effect and 10 is complete control
[11] = Preemergence, Rate 500 g/ha, scale 0 to 10 (0 no effect, 10 complete control)
[12] = Rate 62 g/ha, Postemergence, scale of 0 to 10 where 0 is no effect and 10 is complete control
[13] = Rate 500 g/ha, Postemergence, scale 0 to 10, 0 no effect, 10 complete control

For `CCn1c(=O)on(C(=O)N(c2ccccc2)C(C)C)c1=O` [Compound 117], the “Plant response rating, Green foxtail” value (green foxtail; [3]) was 50, the “Plant response rating, Green foxtail” value (green foxtail; [4]) was 60 and the “Plant response rating, Green foxtail” value (green foxtail; Rate 250 g/ha, 0 to 100 scale) was 80. The “Tall Mallow plant response rating” value (tall mallow; Rate 64 g/ha) was 40, the “Tall Mallow plant response rating” value (tall mallow; Rate 125 g/ha) was 65 and the “Plant response rating, Tall Mallow” value (tall mallow; Rate 500 g/ha) was 100. The “Plant response rating, Bermudagrass” value (bermuda-grass; [5]) was 98, the “Plant response rating, Bermudagrass” value (bermuda-grass; [6]) was 100 and the “Plant response rating, Bermudagrass” value (bermuda-grass; Rate 500 g/ha) was 100. For the same compound, the “Plant response rating, Wheat (winter)” value (winter wheat [1]; [3]) was 30, the “Plant response rating, Wheat (winter)” value (winter wheat [1]; [4]) was 60 and the “Plant response rating, Wheat (winter)” value (winter wheat [1]; Rate 250 g/ha, 0 to 100 scale) was 90. For the same compound, the “Plant response rating, C. purslane” value (common pursiane; Rate 64 g/ha, Preemergence; 0 to 100 scale, 0 no injury, 100 complete control) was 0, the “Plant response rating, C. purslane” value (common pursiane; Rate 125 g/ha, Preemergence; 0 to 100 scale, 0 no injury, 100 complete control) was 0 and the “Plant response rating, C. purslane” value (common pursiane; Rate 500 g/ha, Preemergence; 0 to 100 scale) was 65. The “Plant response rating, C. purslane” value (common pursiane; Rate 500 g/ha; Preemergence; 0 to 100 scale) was 0, the “Soybean plant response rating” value (soybean; [7]) was 5 and the “Soybean plant response rating” value (soybean; [8]) was 0. For the same compound, the “Plant response rating, Soybean” value (soybean; [9]) was 8, the “Plant response rating, Soybean” value (soybean; [10]) was 8 and the “Soybean plant response rating” value (soybean; [11]) was 9. The “Soybean plant response rating” value (soybean; [12]) was 2, the “Plant response rating, Soybean” value (soybean; Rate 250 g/ha, Postemergence, scale 0 to 10, 0 is no effect, 10 is complete control) was 5 and the “Soybean plant response rating” value (soybean; [13]) was 7. The “Plant response rating, I. Ryegrass” value (Italian ryegrass; [3]) was 50, the “Plant response rating, I. Ryegrass” value (Italian ryegrass; [4]) was 45 and the “Plant response rating, I. Ryegrass” value (Italian ryegrass; Rate 250 g/ha, 0 to 100 scale) was 85. The “Plant response rating, Guineagrass” value (guineagrass; [5]) was 100, the “Plant response rating, Guineagrass” value (guineagrass; [6]) was 100 and the “Plant response rating, Guineagrass” value (guineagrass; Rate 500 g/ha) was 100. The “Ducksalad plant response rating” value (duck salad; Postemergence (flood test species), Rate 125 g/ha, scale of 0 to 10 where 0 is no effect and 10 is complete control) was 0, the “Ducksalad plant response rating” value (duck salad; Rate 62 g/ha, Postemergence section, flood test species, scale of 0 to 10 where 0 is no effect and 10 is complete control) was 0 and the “Ducksalad plant response rating” value (duck salad; Rate 250 g/ha, headed Pre-emergence (flood test species), scale 0 to 10 (0 no effect, 10 complete control)) was 0. For the same compound, the “Plant response rating, Ducksalad” value (duck salad; Rate 500 g/ha, headed Pre-emergence (flood test species), scale 0 to 10 (0 no effect, 10 complete control)) was 0, the “Ducksalad plant response rating” value (duck salad; Rate 500 g/ha, listed under Postemergence (flood test species), scale 0 to 10, 0 no effect, 10 complete control) was 0 and the “Ducksalad plant response rating” value (duck salad; Rate 1000 g/ha, Pre-emergence (as headed), scale 0 to 10) was 0. For the same compound, the “Ducksalad plant response rating” value (duck salad; Rate 2000 g/ha, Pre-emergence (as headed), scale 0 to 10) was 1, the “Ducksalad plant response rating” value (duck salad; flood test, listed under Postemergence, Rate 250 g/ha, scale 0 to 10, 0 no effect, 10 complete control) was 0 and the “Cocklebur plant response rating” value (cocklebur; [7]) was 0. The “Cocklebur plant response rating” value (cocklebur; Postemergence, Rate 250 g/ha, scale 0 to 10, 0 no effect, 10 complete control) was 0, the “Cocklebur plant response rating” value (cocklebur; [8]) was 0 and the “Plant response rating, Cocklebur” value (cocklebur; [9]) was 0. For the same compound, the “Plant response rating, Cocklebur” value (cocklebur; [10]) was 0, the “Cocklebur plant response rating” value (cocklebur; [11]) was 0 and the “Cocklebur plant response rating” value (cocklebur; [12]) was 0. The “Cocklebur plant response rating” value (cocklebur; [13]) was 1, the “Plant response rating, P. morninglory” value (pitted morningglory; [5]) was 0 and the “Plant response rating, P. morninglory” value (pitted morningglory; [6]) was 20. For the same compound, the “Plant response rating, P. morninglory” value (pitted morningglory; Rate 500 g/ha) was 40, the “Velvetleaf plant response rating” value (velvetleaf; [7]) was 3 and the “Velvetleaf plant response rating” value (velvetleaf; [8]) was 6. For the same compound, the “Velvetleaf plant response rating (0 to 10 scale)” value (velvetleaf; Preemergence, Rate 125 g/ha, 0 is no effect, 10 is complete control) was 8, the “Plant response rating, Velvetleaf” value (velvetleaf; Preemergence, scale of 0 to 10 where 0 is no effect and 10 is complete control) was 10 and the “Velvetleaf plant response rating” value (velvetleaf; [11]) was 10. For the same compound, the “Velvetleaf plant response rating” value (velvetleaf; [12]) was 0, the “Plant response rating, Velvetleaf” value (velvetleaf; Postemergence, scale 0 to 10, 0 is no effect, 10 is complete control) was 6 and the “Velvetleaf plant response rating” value (velvetleaf; [13]) was 8. The “Plant response rating, Wheat (winter)” value (winter wheat [2]; Rate 62 g/ha, 0 to 100 scale) was 0, the “Plant response rating, Wheat (winter)” value (winter wheat [2]; Rate 125 g/ha, 0 to 100 scale) was 10 and the “Plant response rating, Wheat (winter)” value (winter wheat [2]; Rate 250 g/ha, 0 to 100 scale (0 no effect, 100 complete control)) was 25. For the same compound, the “Plant response rating, Wild oat” value (wild oat; [3]) was 20, the “Plant response rating, Wild oat” value (wild oat; [4]) was 20 and the “Plant response rating, Blackgrass” value (blackgrass; [3]) was 50. The “Plant response rating, Blackgrass” value (blackgrass; [4]) was 50, the “Plant response rating, Blackgrass” value (blackgrass; Rate 250 g/ha, 0 to 100 scale) was 60 and the “Plant response rating, Barley (winter)” value (winter barley; [3]) was 25. For the same compound, the “Plant response rating, Barley (winter)” value (winter barley; [4]) was 20 and the “Plant response rating, Barley (winter)” value (winter barley; Rate 250 g/ha, 0 to 100 scale) was 30.
